# According to PMC10914731, “Homo-BacPROTAC-induced degradation of ClpC1 as a strategy against drug-resistant mycobacteria” (Nature Communications, 2024):
# Several values for one entry are separate records, joined by “and”; a condition that tells them apart may be missing. Identical values can stand only once. Like-named read-outs stand apart in the source and are kept apart here. Where a SMILES comes first, the peptide text is derived from it. [ ]: non-standard residue; d: D form. NMeTrp(1-Me) = CN[C@@H](Cc1cn(C)c2ccccc12)C(=O)O; NMeLeu(5-OH,4R) = CN[C@@H](C[C@@H](C)CO)C(=O)O; Phe(βR-OMe) = CO[C@H](c1ccccc1)[C@H](N)C(=O)O; NMeL = CN[C@@H](CC(C)C)C(=O)O
# Tests used:
# [1] = system: Msm 607; assay: microbe, parasite or virus in culture; type: cell-based
# [2] = type: in vitro ADME, Rat; details: rat, pH 7.4
# [3] = Microsomal stability, human; type: in vitro ADME; details: for Microsomal Stability Human: clearance in microsomes
# Outline: (§1)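 Clearance values are expressed as % of liver blood flow, derived from first-order half-lives using the well-stirred liver model. Depletion of 1 µmol/l compound is followed by HPLC-MS/MS in NADPH-supplemented microsomes (0.5 mg/ml) at 37 °C, pH 7.5.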
# [4] = type: in vitro ADME, Mice; details: for Microsomal Stability Mice: clearance in microsomes
# Outline: as §1
# [5] = Hepatocyte stability, mice; type: in vitro ADME; details: mouse, pH 7.4
# Outline: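 Clearance, expressed as % of liver blood flow (% Qh), derived from parent-compound half-life by the well-stirred model, with HPLC-MS/MS quantitation after acetonitrile quench. Test compound at 1 µM final added to mouse hepatocyte suspension in 50% serum after 15–30 min acclimation at 37 °C; six samples over up to 6 h.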
# [6] = system: Caco-2 monolayers; assay: in vitro; details: human, Caco-2
# Outline: (§2)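 Permeability across Caco-2 monolayers was measured in both directions, apical-to-basolateral and basolateral-to-apical, in 10^-6 cm s-1. Efflux ratio = P(B−A)/P(A−B). Intrinsic permeability is the mean of P(A−B) and P(B−A).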
# [7] = in vitro; details: human
# Outline: as §2
# [8] = type: in vitro ADME, Human; details: human, pH 7.4
# [9] = target: ClpC1-NTD substrate, M. tuberculosis ClpC1P1P2 (Mycobacterium tuberculosis, UniProt P9WPC9); assay: biochemical; type: biochemical
# [10] = target: ClpC1 NTD protein (M. tuberculosis) (Mycobacterium tuberculosis, UniProt P9WPC9); assay: biochemical; type: binding
# [11] = type: in vitro ADME, Rat; details: for Microsomal Stability Rat: clearance in microsomes
# Outline: as §1
# [12] = target: His6-tagged ClpC1-NTD substrate, M. smegmatis ClpC1P1P2 (UniProt A0R574+P9WPC9); assay: biochemical; type: biochemical
# [13] = system: M. tuberculosis H37Rv (ATCC 27294); assay: microbe, parasite or virus in culture; type: cell-based
# [14] = system: Msm 700084; assay: microbe, parasite or virus in culture; type: cell-based
# [15] = target: endogenous ClpC1 in Msm #607 cells (Mycolicibacterium smegmatis, UniProt A0R574); type: cell-based, M. smegmatis
# [16] = Mycolicibacterium smegmatis, 607, read-out: MIC Msm 607
# [17] = Mycolicibacterium smegmatis, 607, read-out: Msm 607 MIC, single determinations
# [18] = Caco-2, Caco-2 permeability P (A-B)
# [19] = Mtb, Measurement 1-4, read-out: 1-Dmax, single measurements
# [20] = Mtb, mean of the measurements, read-out: 1-Dmax, Mean
# [21] = Mtb, mean of the measurements, read-out: DC50, Mean
# [22] = SPR (Supplementary Table 1), read-out: KD ClpC1-NTD Mean ± SD
# [23] = SPR dissociation rate constant, read-out: koff ClpC1-NTD Mean ± SD
# [24] = SPR, single independent measurements
# [25] = SPR, single independent measurements, read-out: KD ClpC1-NTD
# [26] = SPR, single independent measurements, read-out: koff ClpC1-NTD
# [27] = Msm, Measurement 1-6, read-out: 1-Dmax, single measurements
# [28] = Msm, mean of the measurements, read-out: 1-Dmax, Mean
# [29] = Msm, mean of the measurements, read-out: DC50, Mean
# [30] = Mycobacterium tuberculosis, Mtb H37Rv (Supplementary Table 2), read-out: MIC Mtb
# [31] = Mycobacterium tuberculosis, single determinations, read-out: Mtb MIC
# [32] = Mycolicibacterium smegmatis, 700084, single determinations, read-out: Msm 700084 MIC
# [33] = Mycolicibacterium smegmatis, 700084, read-out: MIC Msm 700084
# [34] = read-out: DC50, single measurements
# ClpC1-NTD substrate, M. tuberculosis ClpC1P1P2, sequence (P9WPC5 whole entry): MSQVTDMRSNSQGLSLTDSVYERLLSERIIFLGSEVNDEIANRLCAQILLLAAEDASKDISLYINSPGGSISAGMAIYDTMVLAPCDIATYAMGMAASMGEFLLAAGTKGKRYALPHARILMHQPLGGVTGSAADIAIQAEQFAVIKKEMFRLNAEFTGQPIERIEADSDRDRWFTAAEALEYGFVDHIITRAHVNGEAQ
# ClpC1-NTD substrate, M. tuberculosis ClpC1P1P2, sequence (P9WPC9 whole entry): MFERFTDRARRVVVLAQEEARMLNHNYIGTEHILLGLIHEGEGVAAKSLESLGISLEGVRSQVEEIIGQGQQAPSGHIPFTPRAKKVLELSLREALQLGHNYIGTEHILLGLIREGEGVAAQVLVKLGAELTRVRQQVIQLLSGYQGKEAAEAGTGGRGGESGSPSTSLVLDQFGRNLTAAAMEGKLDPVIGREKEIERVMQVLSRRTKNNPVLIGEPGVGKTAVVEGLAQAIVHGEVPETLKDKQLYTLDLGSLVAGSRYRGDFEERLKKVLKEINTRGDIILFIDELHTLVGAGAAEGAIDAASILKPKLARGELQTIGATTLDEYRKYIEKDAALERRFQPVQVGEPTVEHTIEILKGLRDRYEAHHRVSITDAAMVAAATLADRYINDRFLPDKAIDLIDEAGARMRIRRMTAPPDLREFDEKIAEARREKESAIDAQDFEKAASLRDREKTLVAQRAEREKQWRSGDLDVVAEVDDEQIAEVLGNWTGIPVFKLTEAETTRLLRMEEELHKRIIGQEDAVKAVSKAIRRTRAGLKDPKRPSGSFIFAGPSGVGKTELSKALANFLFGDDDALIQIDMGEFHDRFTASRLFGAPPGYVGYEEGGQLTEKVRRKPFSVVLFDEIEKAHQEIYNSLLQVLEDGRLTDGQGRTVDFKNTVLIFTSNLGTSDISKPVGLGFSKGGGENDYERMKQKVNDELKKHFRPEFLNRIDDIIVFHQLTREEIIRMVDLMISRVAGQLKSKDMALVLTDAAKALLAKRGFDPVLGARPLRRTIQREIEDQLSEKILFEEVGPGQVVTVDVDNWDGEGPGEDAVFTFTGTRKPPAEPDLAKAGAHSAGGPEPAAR
# ClpC1-NTD substrate, M. tuberculosis ClpC1P1P2, sequence (P9WPC3 whole entry, further chain): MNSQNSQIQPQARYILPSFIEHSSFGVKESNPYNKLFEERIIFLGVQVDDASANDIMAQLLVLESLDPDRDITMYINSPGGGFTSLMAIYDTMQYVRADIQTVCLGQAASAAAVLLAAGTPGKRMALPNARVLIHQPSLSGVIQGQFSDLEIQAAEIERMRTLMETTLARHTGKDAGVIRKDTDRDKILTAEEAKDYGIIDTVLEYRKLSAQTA
# ClpC1 NTD protein (M. tuberculosis), sequence (P9WPC9 1-156, looked up, natural form): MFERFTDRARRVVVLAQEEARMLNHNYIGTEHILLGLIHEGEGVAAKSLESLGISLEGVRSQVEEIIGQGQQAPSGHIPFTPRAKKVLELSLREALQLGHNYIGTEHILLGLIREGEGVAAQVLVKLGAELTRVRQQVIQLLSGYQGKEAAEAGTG
# His6-tagged ClpC1-NTD substrate, M. smegmatis ClpC1P1P2, sequence (P9WPC9 1-156, looked up, natural form): as above
# His6-tagged ClpC1-NTD substrate, M. smegmatis ClpC1P1P2, sequence (A0R574 whole entry): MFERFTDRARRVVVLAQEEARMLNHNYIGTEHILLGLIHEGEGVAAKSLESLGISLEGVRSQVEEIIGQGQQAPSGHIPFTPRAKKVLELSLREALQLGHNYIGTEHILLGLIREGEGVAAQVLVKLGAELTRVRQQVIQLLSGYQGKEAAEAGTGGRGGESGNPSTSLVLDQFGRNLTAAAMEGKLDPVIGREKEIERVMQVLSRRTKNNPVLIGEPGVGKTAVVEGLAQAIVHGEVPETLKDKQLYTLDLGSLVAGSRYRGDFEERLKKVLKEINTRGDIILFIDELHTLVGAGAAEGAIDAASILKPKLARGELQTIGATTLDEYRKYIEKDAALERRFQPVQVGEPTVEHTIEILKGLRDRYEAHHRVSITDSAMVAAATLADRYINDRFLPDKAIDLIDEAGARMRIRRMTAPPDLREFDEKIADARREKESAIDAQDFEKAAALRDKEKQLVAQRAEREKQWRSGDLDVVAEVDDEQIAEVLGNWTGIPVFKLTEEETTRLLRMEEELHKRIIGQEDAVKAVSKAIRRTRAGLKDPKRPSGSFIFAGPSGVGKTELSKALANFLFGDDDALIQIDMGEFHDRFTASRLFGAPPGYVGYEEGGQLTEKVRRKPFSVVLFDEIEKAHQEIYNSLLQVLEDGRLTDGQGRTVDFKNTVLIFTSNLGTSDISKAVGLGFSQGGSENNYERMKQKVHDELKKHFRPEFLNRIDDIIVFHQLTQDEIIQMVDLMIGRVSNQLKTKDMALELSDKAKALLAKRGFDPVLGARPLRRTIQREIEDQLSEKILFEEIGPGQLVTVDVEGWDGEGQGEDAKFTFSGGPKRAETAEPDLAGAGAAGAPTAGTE
# endogenous ClpC1 in Msm #607 cells, sequence (A0R574 whole entry): as above
Compound,"MIC [1, 16] [µM]","MIC [1, 17] [µM]",Hepatocyte Rat [2] [%Qh],Hepatocyte Stability Rat QH [2] [%],Microsomal Stability Human QH [3] [%],Microsomal Stability Human [3] [%Qh],Microsomal Stability Mouse QH [4] [%],Microsomal Stability Mice [4] [%Qh],Hepatocyte Mice [5] [%Qh],Caco-2 Int. Perm [6],"Papp A→B [7, 18] [×10⁻⁶ cm/s]",Hepatocyte Stability Human QH [8] [%],"koff [10, 23] [s⁻¹]","koff ClpC1-NTD [10, 24]","koff [10, 26] [s⁻¹]",Microsomal Stability Rat QH [11] [%],Microsomal Stability Rat [11] [%Qh],"MIC [13, 30] [µM]","MIC [13, 31] [µM]","MIC [14, 32] [µM]",also measured
CO[C@H](c1ccccc1)[C@@H]1NC(=O)[C@H](C)NC(=O)[C@H](C[C@@H](C)CO)N(C)C(=O)[C@H](Cc2cn(Cc3cn(CCCCCn4cc(Cn5cc(C[C@@H]6NC(=O)[C@H](C(C)C)NC(=O)[C@H](CC(C)C)N(C)C(=O)[C@H](C(C)C)NC(=O)[C@H]([C@H](OC)c7ccccc7)NC(=O)[C@H](C)NC(=O)[C@H](C[C@@H](C)CO)N(C)C6=O)c6ccccc65)nn4)nn3)c3ccccc23)NC(=O)[C@H](C(C)C)NC(=O)[C@H](CC(C)C)N(C)C(=O)[C@H](C(C)C)NC1=O [Compound 9],0.8,0.78,6,6.192,43.3,43,24.7,25,15,0.1,< 0.2,12.386,0.0005,0.0005 s⁻¹ and 0.0006 s⁻¹,0.0005,<23.100,< 23,0.3 ± 0.1,0.39,> 50,"Hepatocyte Stability Mouse QH [5]: 15.001%; Caco-2 permeability P (B-A) [6]: 0; Papp A→B ([7]; Caco-2, CACO permeability PEAB): < 1.2 ×10⁻⁶ cm/s; Papp B→A ([7]; Caco-2, CACO permeability PEBA): < 0.28 ×10⁻⁶ cm/s; Hepatocyte Human [8]: 12 %Qh; 1-Dmax, single measurements ([9]; Mtb, Measurement 1-4): 29.9% and 20.5%; 1-Dmax (percent substrate remaining at maximal degradation) [9, 19]: 27.5%; DC50 ([9]; Mtb, Measurement 1-4, read-out: DC50, single measurements): 7.2 µM and 8.7 µM and 4.4 µM; 1-Dmax (percent substrate remaining at maximal degradation) [9, 20]: 26%; DC50 [9, 21]: 6.8 µM; Kd [10, 22]: 0.0006 ± 0.0002 µM; Kd [10, 25]: 0.000453 µM and 0.000515 µM and 0.000745 µM; 1-Dmax, single measurements ([12]; Msm, Measurement 1-6): 54.4% and 51.4%; 1-Dmax (percent substrate remaining at maximal degradation) [12, 27]: 54.7%; DC50 ([12]; Msm, Measurement 1-6, read-out: DC50, single measurements): 7.8 µM and 9.2 µM and 6.9 µM; 1-Dmax (percent substrate remaining at maximal degradation) [12, 28]: 54%; DC50 [12, 29]: 8 µM; MIC ([13]; single determinations, read-out: Mtb MIC): 0.195 µM; MIC [14, 33]: > 50 µM"
CO[C@@H](c1ccccc1)[C@H]1NC(=O)[C@@H](C)NC(=O)[C@@H](C[C@H](C)CO)N(C)C(=O)[C@@H](Cc2cn(C)c3ccccc23)NC(=O)[C@@H](Cc2cn(CCCCCn3cc(C[C@H]4NC(=O)[C@@H](CC(C)C)N(C)C(=O)[C@@H](C(C)C)NC(=O)[C@@H]([C@@H](OC)c5ccccc5)NC(=O)[C@@H](C)NC(=O)[C@@H](C[C@H](C)CO)N(C)C(=O)[C@@H](Cc5cn(C)c6ccccc56)NC4=O)nn3)nn2)NC(=O)[C@@H](CC(C)C)N(C)C(=O)[C@@H](C(C)C)NC1=O [Compound 12a],–,–,–,–,–,–,–,–,–,–,–,–,–,–,–,–,–,–,–,–,"intracellular degradation of ClpC1 [15]: inactive; DC50 ([9]; read-out: DC50, Mean): > 100 µM; DC50 [9, 34]: > 100 µM; degradation of the His6-tagged ClpC1-NTD substrate [12]: did not cause any degradation; DC50 ([12]; read-out: DC50, Mean): > 100 µM; DC50 [12, 34]: > 100 µM"
CO[C@H](c1ccccc1)[C@@H]1NC(=O)[C@H](C)NC(=O)[C@H](C[C@@H](C)CO)N(C)C(=O)[C@H](Cc2cn(Cc3cn(CCOCCOCCOCCOCCn4cc(Cn5cc(C[C@H]6C(=O)N(C)[C@@H](C[C@@H](C)CO)C(=O)N[C@@H](C)C(=O)N[C@@H]([C@H](OC)c7ccccc7)C(=O)N[C@@H](C(C)C)C(=O)N(C)[C@@H](CC(C)C)C(=O)N[C@@H](C(C)C)C(=O)N6C)c6ccccc65)nn4)nn3)c3ccccc23)N(C)C(=O)[C@H](C(C)C)NC(=O)[C@H](CC(C)C)N(C)C(=O)[C@H](C(C)C)NC1=O [Compound 27],1.6,1.56,6,6.192,>88.400,> 88,77.100,77,15,4.1,< 6.4,12.386,0.002,2E-3 2E-3 1/s,0.002,41.300,41,< 0.1,< 0.1,0.78,"Papp B→A ([7]; Caco-2, Caco-2 permeability P (B-A)): < 1.7 ×10⁻⁶ cm/s; Hepatocyte Human [8]: 12 %Qh; 1-Dmax, single measurements ([9]; Mtb, Measurement 1-4): 70.9% and 71.4% and 79.4%; 1-Dmax (percent substrate remaining at maximal degradation) [9, 19]: 75.3%; 1-Dmax (percent substrate remaining at maximal degradation) [9, 20]: 74%; DC50 [9, 21]: 24.7 µM; Kd ([10]; SPR, individual measurements (source data), read-out: KD ClpC1-NTD): 0.0003 µM and 0.000576 µM; Kd ([10]; SPR, read-out: ClpC1-NTD KD Mean ± SD): 0.0004 ± 0.0002 µM; 1-Dmax, single measurements ([12]; Msm, Measurement 1-6): 93.8% and 90.4%; 1-Dmax (percent substrate remaining at maximal degradation) [12, 27]: 89.3%; 1-Dmax (percent substrate remaining at maximal degradation) [12, 28]: 91%; DC50 [12, 29]: 12.5 µM; MIC ([13]; Mycobacterium tuberculosis, M. tuberculosis H37Rv strain, read-out: MIC Mtb H37Rv Mean ± SD): < 0.1 µM; MIC ([13]; Mycobacterium tuberculosis, individual measurements (source data), read-out: Mtb MIC): < 0.1 µM; MIC [14, 33]: 0.8 µM"
"CO[C@H](c1ccccc1)[C@@H]1NC(=O)[C@H](C)NC(=O)[C@H](C[C@@H](C)CO)N(C)C(=O)[C@H](Cc2cn(C)c3ccccc23)N(C)C(=O)[C@H](CCC(=O)N(C)C)NC(=O)[C@H](CC(C)C)N(C)C(=O)[C@H](C(C)C)NC1=O [SI-76] (cyclo(A[Phe(βR-OMe)]V[NMeL]E(NMe2)[NMeTrp(1-Me)][NMeLeu(5-OH,4R)]))",12.5,12.5,52,52.287,>88.400,> 88,>88.400,> 88,23,4.3,< 0.1,19.852,0.06,6E-2 6E-2 1/s,0.06,78.000,78,6.3,6.25,25,"Hepatocyte Stability Mouse QH [5]: 23.483%; efflux ratio ([7]; Caco-2): > 84; Papp A→B ([7]; Caco-2, CACO permeability PEAB): < 0.11 ×10⁻⁶ cm/s; Papp B→A ([7]; Caco-2, CACO permeability PEBA): 10 ×10⁻⁶ cm/s; Kd [10, 22]: 0.026 ± 0.006 µM; Kd [10, 25]: 0.0214 µM and 0.0305 µM; MIC [14, 33]: 25 µM"
